Measured values: patent publication US20230357272A1, “OCTAHYDROPYRAZINODIAZANAPHTHYRIDINE DIONE COMPOUNDS” (MEDSHINE DISCOVERY INC., priority 2020, published 2023)
Read-outs that look alike come from different tables or passages of the source.

How the values were obtained:
[1] = Pharmacokinetic study of female BALB/c nude mice (plasma and tumor); format: in vivo; conditions: for concentration at 1 h / concentration at 4 h / concentration at 8 h: oral, read-out: Mean drug concentration; for Kp: tumor/plasma, read-out: AUC ratio = tumor AUC0-last/plasma AUC0-last
Description: This experiment was a pharmacokinetic study of female BALB/c nude mice after oral administration of compound 1D. The experiment was divided into three groups, which were intragastrically administered with 1, 3 and 10 mg/kg of compound 1D, respectively. Animals in each group were divided into two batches, and plasma and tumor tissue samples were collected at different time points after administration. The collection time points of the plasma samples from each group of animals were: 0.083, 0.25, 0.5, 1, 2, 4, 6 and 8 hours, respectively, and the collection time points of tumor tissue samples were 1, 4 and 8 hours, respectively. At the corresponding sample collection time point after administration, plasma was collected, and tumor tissue was dissected and weighed. The plasma was stored at −80° C., and the tumor tissue was stored in a cryopreservation tube and quickly frozen in liquid nitrogen. Cross-collected plasma samples were used to calculate the mean concentration of the corresponding time points in each group for the calculation of PK parameters.

MIA-PA-CA-2 cells = assay: Anti-proliferation experiment of MIA-PA-CA-2 cells (CellTiter-Glo); format: cell-based; conditions: Homo sapiens, MIA PaCa-2, 72 h, 3 days
Description: DMEM culture medium, fetal bovine serum purchased from Biosera, and horse serum purchased from Gibco. CellTiter-Glo (chemiluminescence detection reagent for cell viability) reagent purchased from Promega. MIA-PA-CA-2 cell line purchased from Nanjing CoBioer Biotechnology Co., Ltd. EnVision multi-label analyzer (PerkinElmer).
MIA-PA-CA-2 cells were seeded in a white 96-well plate with 80 μL of cell suspension per well, which contained 1000 MIA-PA-CA-2 cells. The cell plate was incubated overnight in a carbon dioxide incubator.
The compounds to be tested were diluted 5-fold with a row gun to the eighth concentration, that is, from 2 mM to 26 nM, and a double-duplication experiment was set up. 78 μL of culture medium was added to a middle plate, and then 2 μL of gradient diluted compound per well was transferred to the middle plate according to the corresponding position. After being thoroughly mixed, 20 μL per well was transferred to the cell plate. The concentration range of the compound transferred to the cell plate was 10 μM to 0.13 nM. The cell plate was placed in the carbon dioxide incubator for 3 days. Another cell plate was prepared, and the signal value was read as the maximum value (Max value in the equation below) on the day of administration to participate in data analysis. 25 μL of cell viability chemiluminescence detection reagent was added to each well of the cell plate, and incubated at room temperature for 10 minutes to stabilize the luminescence signal. A multi-label analyzer was used for reading.
Using the equation (Sample−Min)/(Max−Min)*100% to convert the raw data into inhibition rate, and the value of IC50 might be obtained by curve fitting with four parameters (obtained by “log (inhibitor)/response—Variable scope” mode in GraphPad Prism software). Table 2 provides the inhibitory activity of the compounds of the present disclosure on the proliferation of MIA-PA-CA-2 cells.

[2] = tested on: human colon cancer CO-04-0070 subcutaneous xenograft tumor; assay: In vivo pharmacodynamic study on human colon cancer CO-04-0070 subcutaneous xenograft tumor model; set-up: species or system BALB/c nude mouse; conditions: for Tumor volume (Day 0): Day 0 (at grouping); for Tumor volume (Day 0) / Tumor volume (Day 20) / Tumor weight (Day 20): mean ± SEM, n = 8; for RTV (Day 20) / T/C (%) (Day 20) / T/Cweight / TGI (%) (Day 20) / Tumor volume (Day 20) / Tumor weight (Day 20): Day 20
Description: To evaluate the in vivo efficacy of the compound in the human colon cancer CO-04-0070 subcutaneous xenograft tumor BALB/c nude mouse model.
Each animal was inoculated with a CO-04-0070 FP7 tumor block with a volume of about 30 mm^3 in the right back position. When the mean tumor volume reached 151 mm^3, random grouping was used and the administration was started.
Tumor diameters were measured with vernier calipers twice a week. The calculation formula of tumor volume was: V=0.5a×b^2, wherein a and b represented the long and short diameters of the tumor, respectively.
The anti-tumor efficacy of the compounds was evaluated by TGI (%) or relative tumor proliferation rate T/C (%). Relative tumor proliferation rate T/C (%)=TRTV/CRTV×100% (TRTV: mean RTV of the treatment group; CRTV: mean RTV of the negative control group). The relative tumor volume (RTV) was calculated according to the results of tumor measurement, and the calculation formula was RTV=Vt/V0, wherein V0 was the tumor volume measured at the time of group administration (that is, D0), Vt was the tumor volume at a certain measurement, and the data of TRTV and CRTV were taken on the same day. TGI (%), reflecting the tumor growth inhibition rate.
TGI (%)=[1−(mean tumor volume at the end of administration in a treatment group−mean tumor volume at the beginning of administration in the treatment group)/(mean tumor volume at the end of treatment in vehicle control group−mean tumor volume at the beginning of treatment in vehicle control group)]×100%.
After the experiment, the tumor weight would be detected, and the percentage of T/Cweight would be calculated. Tweight and Cweight represented the tumor weight of the administration group and the vehicle control group, respectively.

[3] = female, BALB/c nude, mouse, plasma, 1 mg/kg intragastric
[4] = female, BALB/c nude, mouse, plasma, 3 mg/kg intragastric
[5] = female, BALB/c nude, mouse, plasma, 10 mg/kg intragastric
[6] = female, BALB/c nude, mouse, tumor, 1 mg/kg intragastric
[7] = female, BALB/c nude, mouse, tumor, 3 mg/kg intragastric
[8] = female, BALB/c nude, mouse, tumor, 10 mg/kg intragastric
[9] = female, BALB/c nude, mouse, po, plasma, 1 mg/kg intragastric
[10] = female, BALB/c nude, mouse, po, plasma, 3 mg/kg intragastric
[11] = female, BALB/c nude, mouse, po, plasma, 10 mg/kg intragastric
[12] = female, BALB/c nude, mouse, po, tumor, 3 mg/kg intragastric
[13] = female, BALB/c nude, mouse, po, tumor, 10 mg/kg intragastric

Q: With `C=CC(=O)N1CCN2c3c(c(=O)n(-c4c(C)ccnc4C(C)C)c4c(=O)n(-c5c(N)c(Cl)cc(Cl)c5F)c(C(F)(F)F)cc34)OCC[C@H]2C1` [Compound 1D] as the molecule, how does the concentration at 1 h [1, 3] read?
A: 22.5 nM

Q: And the concentration at 4 h [1, 3]?
A: 3.58 nM

Q: What about the concentration at 8 h [1, 3] of the same molecule?
A: 1.22 nM

Q: And the concentration at 1 h [1, 4]?
A: 157 nM

Q: What about the concentration at 4 h [1, 4] of the same molecule?
A: 11.5 nM

Q: And the concentration at 8 h [1, 4]?
A: 4.13 nM

Q: And the concentration at 1 h [1, 5]?
A: 285 nM

Q: And the concentration at 4 h [1, 5]?
A: 54.8 nM

Q: And the concentration at 8 h [1, 5]?
A: 30.6 nM

Q: And the concentration at 1 h [1, 6]?
A: 10.4 nM

Q: What about the concentration at 4 h [1, 6] of the same molecule?
A: 2.04 nM

Q: And the concentration at 1 h [1, 7]?
A: 136 nM

Q: What about the concentration at 4 h [1, 7] of the same molecule?
A: 9.78 nM

Q: And the concentration at 8 h [1, 7]?
A: 2.78 nM

Q: What about the concentration at 1 h [1, 8] of the same molecule?
A: 203 nM

Q: What about the concentration at 4 h [1, 8] of the same molecule?
A: 37.9 nM

Q: What about the concentration at 8 h [1, 8] of the same molecule?
A: 20.8 nM

Q: What about the AUC(0-t) [1, 9] of the same molecule?
A: 0.0544 µM·h

Q: And the Tmax [1, 9]?
A: 0.25 h

Q: What about the half-life [1, 9] of the same molecule?
A: 2.57 h

Q: And the Cmax ([1]; female, BALB/c nude, mouse, po, plasma, 1 mg/kg intragastric, read-out: Cmax)?
A: 40.8 nM

Q: What about the AUC(0-t) [1, 10] of the same molecule?
A: 0.287 µM·h

Q: And the Tmax [1, 10]?
A: 0.5 h

Q: And the half-life [1, 10]?
A: 2.2 h

Q: What about the Cmax ([1]; female, BALB/c nude, mouse, po, plasma, 3 mg/kg intragastric, read-out: Cmax) of the same molecule?
A: 191 nM

Q: And the AUC(0-t) [1, 11]?
A: 0.84 µM·h

Q: What about the Tmax [1, 11] of the same molecule?
A: 0.25 h

Q: And the half-life [1, 11]?
A: 1.99 h

Q: And the Cmax ([1]; female, BALB/c nude, mouse, po, plasma, 10 mg/kg intragastric, read-out: Cmax)?
A: 348 nM

Q: And the Tmax [1, 12]?
A: 1 h

Q: And the half-life [1, 12]?
A: 1.28 h

Q: And the Tmax [1, 13]?
A: 1 h

Q: What about the half-life [1, 13] of the same molecule?
A: 2.19 h

Q: And the Kp ([1]; female, BALB/c nude, mouse, po, 3 mg/kg intragastric)?
A: 0.815

Q: And the Kp ([1]; female, BALB/c nude, mouse, po, 10 mg/kg intragastric)?
A: 0.608

Q: And the Tlast ([1]; plasma, 1 mg/kg intragastric)?
A: 8.00 h

Q: What about the Tlast ([1]; plasma, 3 mg/kg intragastric) of the same molecule?
A: 8.00 h

Q: And the Tlast ([1]; plasma, 10 mg/kg intragastric)?
A: 8.00 h

Q: And the AUC0-last ([1]; tumor, 3 mg/kg intragastric)?
A: 234 nmol·h/kg

Q: And the Cmax ([1]; tumor, 3 mg/kg intragastric)?
A: 136 nmol/kg

Q: What about the Tlast ([1]; tumor, 3 mg/kg intragastric) of the same molecule?
A: 8.00 h

Q: What about the AUC0-last ([1]; tumor, 10 mg/kg intragastric) of the same molecule?
A: 511 nmol·h/kg

Q: And the Cmax ([1]; tumor, 10 mg/kg intragastric)?
A: 203 nmol/kg

Q: What about the Tlast ([1]; tumor, 10 mg/kg intragastric) of the same molecule?
A: 8.00 h

Q: And the IC50 (MIA-PA-CA-2 cells)?
A: 8 nM

Q: And the “Tumor volume (Day 0)” value ([2]; 3 mg/kg PO QD × 3 weeks)?
A: 151 mm^3

Q: What about the “RTV (Day 20)” value ([2]; 3 mg/kg PO QD × 3 weeks) of the same molecule?
A: 5.32

Q: And the “T/C (%) (Day 20)” value ([2]; 3 mg/kg PO QD × 3 weeks)?
A: 58.0%

Q: What about the T/Cweight ([2]; 3 mg/kg PO QD × 3 weeks) of the same molecule?
A: 61.6%

Q: And the “TGI (%) (Day 20)” value ([2]; 3 mg/kg PO QD × 3 weeks)?
A: 45.4%

Q: What about the “Tumor volume (Day 20)” value ([2]; 3 mg/kg PO QD × 3 weeks) of the same molecule?
A: 788 mm^3

Q: What about the “Tumor weight (Day 20)” value ([2]; 3 mg/kg PO QD × 3 weeks) of the same molecule?
A: 0.832 ± 0.102 g

Q: And the “Tumor volume (Day 0)” value ([2]; 10 mg/kg PO QD × 3 weeks)?
A: 151 mm^3

Q: What about the “RTV (Day 20)” value ([2]; 10 mg/kg PO QD × 3 weeks) of the same molecule?
A: 2.43

Q: What about the “T/C (%) (Day 20)” value ([2]; 10 mg/kg PO QD × 3 weeks) of the same molecule?
A: 26.5%

Q: And the T/Cweight ([2]; 10 mg/kg PO QD × 3 weeks)?
A: 30.1%

Q: What about the “TGI (%) (Day 20)” value ([2]; 10 mg/kg PO QD × 3 weeks) of the same molecule?
A: 80.5%

Q: And the “Tumor volume (Day 20)” value ([2]; 10 mg/kg PO QD × 3 weeks)?
A: 379 mm^3

Q: And the “Tumor weight (Day 20)” value ([2]; 10 mg/kg PO QD × 3 weeks)?
A: 0.406 ± 0.095 g

Q: And the “Tumor volume (Day 0)” value ([2]; 30 mg/kg PO QD × 3 weeks)?
A: 151 mm^3

Q: And the “RTV (Day 20)” value ([2]; 30 mg/kg PO QD × 3 weeks)?
A: 1.02

Q: What about the “T/C (%) (Day 20)” value ([2]; 30 mg/kg PO QD × 3 weeks) of the same molecule?
A: 11.1%

Q: And the T/Cweight ([2]; 30 mg/kg PO QD × 3 weeks)?
A: 12.0%

Q: And the “TGI (%) (Day 20)” value ([2]; 30 mg/kg PO QD × 3 weeks)?
A: 99.9%

Q: And the “Tumor volume (Day 20)” value ([2]; 30 mg/kg PO QD × 3 weeks)?
A: 152 mm^3

Q: What about the “Tumor weight (Day 20)” value ([2]; 30 mg/kg PO QD × 3 weeks) of the same molecule?
A: 0.162 ± 0.023 g
